ChEMBL document CHEMBL5154762, “Design, synthesis, and tumor drug resistance reversal activity of novel hederagenin derivatives modified by nitrogen-containing heterocycles” (Eur J Med Chem, 2022)
The source made the active and inactive calls. No cut-off for these calls is given here.

Assays:
[1] = Cytotoxicity against human KBV cells assessed as decrease in cell survival rate at 100 nM measured after 72 hrs by MTT assay; format: functional; conditions: read-out: Survival
[2] = Antitumor activity against human KBV cells xenografted in BALB/c mouse assessed as tumor suppression rate at 30 mg/kg administered once every three days; format: functional
[3] = Cytotoxicity against human KBV cells assessed as decrease in cell survival rate at 10 uM measured after 72 hrs in presence of paclitaxel by MTT assay; format: functional; conditions: read-out: Survival
[4] = Cytotoxicity against human KBV cells assessed as decrease in cell survival rate at 10 uM measured after 72 hrs by MTT assay; format: functional; conditions: read-out: Survival
[5] = system: KBV; test: Induction of apoptosis in human KBV cells at 10 uM measured after 24 hrs in presence of paclitaxel by flow cytometry analysis; format: functional, cell-based
[6] = system: KBV; test: Induction of cell cycle arrest in human KBV cells assessed as accumulation at G2/M phase measured after 24 hrs by propidium iodide/RNase staining based flow cytometry analysis; format: functional
[7] = Toxicity in BALB/c mouse xenografted with human KBV cells assessed as change in body weight at 10 mg/kg, ip qd administered presence of paclitaxel; format: organism-based; conditions: in vivo
[8] = Antitumor activity against human KBV cells xenografted in BALB/c mouse assessed as tumor suppression rate at 10 mg/kg, ip qd administered in presence of paclitaxel; format: functional
[9] = molecular target: ATP-dependent translocase ABCB1 (Homo sapiens, UniProt P08183); test: Inhibition of P-glycoprotein mediated Rhodamine-123 efflux in human KBV cells assessed as increase in rhodamine-123 accumulation incubated for 3 hrs in presence of rhodamine-123 by flow cytometry analysis; format: cell-based; conditions: DDE = dose-dependent effect
Sequence of ATP-dependent translocase ABCB1 (P08183 whole entry): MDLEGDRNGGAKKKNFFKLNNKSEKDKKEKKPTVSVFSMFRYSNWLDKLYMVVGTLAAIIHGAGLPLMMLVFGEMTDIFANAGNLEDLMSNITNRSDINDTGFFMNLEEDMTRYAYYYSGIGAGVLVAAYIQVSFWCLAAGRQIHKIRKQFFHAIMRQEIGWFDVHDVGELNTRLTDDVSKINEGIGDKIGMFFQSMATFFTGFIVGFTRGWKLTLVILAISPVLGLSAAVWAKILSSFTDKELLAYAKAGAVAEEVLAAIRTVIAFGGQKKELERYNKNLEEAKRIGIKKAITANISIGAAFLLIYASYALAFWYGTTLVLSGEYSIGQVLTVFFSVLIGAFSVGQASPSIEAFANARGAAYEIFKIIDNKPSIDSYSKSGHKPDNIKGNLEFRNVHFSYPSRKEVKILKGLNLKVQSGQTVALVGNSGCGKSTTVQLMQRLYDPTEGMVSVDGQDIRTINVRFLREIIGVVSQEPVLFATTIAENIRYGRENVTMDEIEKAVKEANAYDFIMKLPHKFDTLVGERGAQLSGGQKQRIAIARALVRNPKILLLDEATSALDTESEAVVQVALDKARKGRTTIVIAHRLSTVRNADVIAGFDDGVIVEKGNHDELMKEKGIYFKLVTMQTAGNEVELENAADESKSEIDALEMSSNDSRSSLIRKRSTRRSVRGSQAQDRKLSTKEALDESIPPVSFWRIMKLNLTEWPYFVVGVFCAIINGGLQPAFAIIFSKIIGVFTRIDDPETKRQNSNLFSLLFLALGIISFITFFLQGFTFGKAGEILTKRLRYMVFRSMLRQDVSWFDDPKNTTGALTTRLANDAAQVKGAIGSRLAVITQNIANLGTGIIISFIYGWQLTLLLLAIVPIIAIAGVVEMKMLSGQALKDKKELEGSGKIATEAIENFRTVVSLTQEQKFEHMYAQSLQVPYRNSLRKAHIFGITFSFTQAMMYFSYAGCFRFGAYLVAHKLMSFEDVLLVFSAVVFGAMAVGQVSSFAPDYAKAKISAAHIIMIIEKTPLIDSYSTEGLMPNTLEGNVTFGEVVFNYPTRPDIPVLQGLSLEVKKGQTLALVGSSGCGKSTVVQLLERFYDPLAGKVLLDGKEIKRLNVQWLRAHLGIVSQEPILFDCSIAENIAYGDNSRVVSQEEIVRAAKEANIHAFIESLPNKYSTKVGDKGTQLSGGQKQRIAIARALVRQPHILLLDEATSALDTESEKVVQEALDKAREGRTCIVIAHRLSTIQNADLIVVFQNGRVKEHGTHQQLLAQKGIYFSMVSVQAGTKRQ

[10] = Induction of cell cycle arrest in human KBV cells assessed as accumulation at sub-G0 phase measured after 24 hrs by propidium iodide/RNase staining based flow cytometry analysis (reference value: 6.18%); format: functional

Compound | viability at 10 µM [3] | viability at 10 µM [4] | other results
CC(=O)O[C@H]1C(=O)[C@@]2(C)[C@H]([C@H](OC(=O)c3ccccc3)[C@]3(O)C[C@H](OC(=O)[C@H](O)[C@@H](NC(=O)c4ccccc4)c4ccccc4)C(C)=C1C3(C)C)[C@]1(OC(C)=O)CO[C@@H]1C[C@@H]2O [PACLITAXEL] | – | – | viability at 0.1 µM [1]: 98.7%; Activity [2]: 22.63%
CC1(C)CC[C@]2(C(=O)OCc3ccccc3)CC[C@]3(C)C(=CC[C@@H]4[C@@]5(C)Cc6cnoc6[C@@](C)(COC(=O)CCC(=O)N6CCCC6)[C@@H]5CC[C@]43C)[C@@H]2C1 | 33.3% | 99.4% | –
Cc1ccccc1COC(=O)[C@]12CCC(C)(C)C[C@H]1C1=CC[C@@H]3[C@@]4(C)Cc5nccnc5[C@@](C)(CO)[C@@H]4CC[C@@]3(C)[C@]1(C)CC2 | 27.5% | 99.7% | –
CC1(C)CC[C@]2(C(=O)OCc3ccccc3[N+](=O)[O-])CC[C@]3(C)C(=CC[C@@H]4[C@@]5(C)Cc6nccnc6[C@@](C)(CO)[C@@H]5CC[C@]43C)[C@@H]2C1 | 27.1% | 103% | –
CC1(C)CC[C@]2(C(=O)OCc3ccccc3)CC[C@]3(C)C(=CC[C@@H]4[C@@]5(C)Cc6cnoc6[C@@](C)(COC(=O)CCC(=O)O)[C@@H]5CC[C@]43C)[C@@H]2C1 | 16.6% | 34% | –
CC1(C)CC[C@]2(C(=O)O)CC[C@]3(C)C(=CC[C@@H]4[C@@]5(C)CC[C@H](O)[C@@](C)(CO)[C@@H]5CC[C@]43C)[C@@H]2C1 [HEDERAGENIN] | 149% | – | –
CC1(C)CC[C@]2(C(=O)OCc3ccccc3F)CC[C@]3(C)C(=CC[C@@H]4[C@@]5(C)Cc6nccnc6[C@@](C)(CO)[C@@H]5CC[C@]43C)[C@@H]2C1 | 26.7% | 107% | –
CN1CCN(C(=O)CCC(=O)OC[C@]2(C)c3oncc3C[C@@]3(C)[C@H]2CC[C@]2(C)[C@@H]3CC=C3[C@@H]4CC(C)(C)CC[C@]4(C(=O)OCc4ccccc4)CC[C@]32C)CC1 | 32.5% | 79.7% | –
CC1(C)CC[C@]2(C(=O)OCc3ccc(F)cc3)CC[C@]3(C)C(=CC[C@@H]4[C@@]5(C)Cc6nccnc6[C@@](C)(CO)[C@@H]5CC[C@]43C)[C@@H]2C1 | 83.3% | 94.9% | –
Cc1cccc(COC(=O)[C@]23CCC(C)(C)C[C@H]2C2=CC[C@@H]4[C@@]5(C)Cc6nccnc6[C@@](C)(CO)[C@@H]5CC[C@@]4(C)[C@]2(C)CC3)c1 | 32.8% | 124% | –
CC1(C)CC[C@]2(C(=O)OCc3ccc(Br)cc3)CC[C@]3(C)C(=CC[C@@H]4[C@@]5(C)Cc6nccnc6[C@@](C)(CO)[C@@H]5CC[C@]43C)[C@@H]2C1 | 34.2% | 109% | –
CC1(C)CC[C@]2(C(=O)OCc3cccc(F)c3)CC[C@]3(C)C(=CC[C@@H]4[C@@]5(C)Cc6nccnc6[C@@](C)(CO)[C@@H]5CC[C@]43C)[C@@H]2C1 | 35% | 110% | –
CC1(C)CC[C@]2(C(=O)OCc3ccccc3)CC[C@]3(C)C(=CC[C@@H]4[C@@]5(C)Cc6cnoc6[C@@](C)(COC(=O)CCC(=O)n6cccn6)[C@@H]5CC[C@]43C)[C@@H]2C1 | 63.1% | 69.6% | –
CC1(C)CC[C@]2(C(=O)OCc3ccccc3)CC[C@]3(C)C(=CC[C@@H]4[C@@]5(C)Cc6cnoc6[C@@](C)(COC(=O)CCC(=O)n6ccnc6)[C@@H]5CC[C@]43C)[C@@H]2C1 | 48.6% | 96.9% | –
CC1(C)CC[C@]2(C(=O)OCc3ccccc3)CC[C@]3(C)C(=CC[C@@H]4[C@@]5(C)Cc6nccnc6[C@@](C)(CO)[C@@H]5CC[C@]43C)[C@@H]2C1 | 25.3% | – | –
CC1(C)CC[C@]2(C(=O)OCc3ccccc3)CC[C@]3(C)C(=CC[C@@H]4[C@@]5(C)Cc6cnoc6[C@@](C)(CO)[C@@H]5CC[C@]43C)[C@@H]2C1 | 33.7% | 140% | –
CC1(C)CC[C@]2(C(=O)OCc3cccc(Cl)c3)CC[C@]3(C)C(=CC[C@@H]4[C@@]5(C)Cc6nccnc6[C@@](C)(CO)[C@@H]5CC[C@]43C)[C@@H]2C1 | 30.8% | 92% | –
CC1(C)CC[C@]2(C(=O)OCc3ccccc3)CC[C@]3(C)C(=CC[C@@H]4[C@@]5(C)Cc6cnoc6[C@@](C)(COC(=O)CCC(=O)N6CCOCC6)[C@@H]5CC[C@]43C)[C@@H]2C1 | 34.1% | 89.6% | –
CCOC(=O)c1noc2c1C[C@@]1(C)[C@@H](CC[C@]3(C)[C@@H]1CC=C1[C@@H]4CC(C)(C)CC[C@]4(C(=O)O)CC[C@]13C)[C@]2(C)CO | 92.1% | 93.9% | –
CC1(C)CC[C@]2(C(=O)OCc3ccccc3)CC[C@]3(C)C(=CC[C@@H]4[C@@]5(C)Cc6cnoc6[C@@](C)(COC(=O)CCC(=O)N6CCCCC6)[C@@H]5CC[C@]43C)[C@@H]2C1 | 79.2% | 80.5% | –
CCN1CCN(C(=O)CCC(=O)OC[C@]2(C)c3oncc3C[C@@]3(C)[C@H]2CC[C@]2(C)[C@@H]3CC=C3[C@@H]4CC(C)(C)CC[C@]4(C(=O)OCc4ccccc4)CC[C@]32C)CC1 | 26.5% | 67.5% | Activity [5]: Active; Activity [6]: Active; Activity [7]: Non-Toxic; Activity [8]: 56.24%; inhibition (INH) [9]: Dde; Activity [10]: 14.8%
CC1(C)CC[C@]2(C(=O)OCc3cccc(Br)c3)CC[C@]3(C)C(=CC[C@@H]4[C@@]5(C)Cc6nccnc6[C@@](C)(CO)[C@@H]5CC[C@]43C)[C@@H]2C1 | 19.6% | 39.8% | –
CC1(C)CC[C@]2(C(=O)OCc3ccc([N+](=O)[O-])cc3)CC[C@]3(C)C(=CC[C@@H]4[C@@]5(C)Cc6nccnc6[C@@](C)(CO)[C@@H]5CC[C@]43C)[C@@H]2C1 | 29.6% | 91.9% | –
CCOC(=O)c1noc2c1C[C@@]1(C)[C@@H](CC[C@]3(C)[C@@H]1CC=C1[C@@H]4CC(C)(C)CC[C@]4(C(=O)OCc4ccccc4)CC[C@]13C)[C@]2(C)CO | 94.7% | 102% | –
